# Measured values published in US10287270B2, “Amino pyrimidine SSAO inhibitors” (ELI LILLY AND COMPANY, priority 2016, dated 2019).
# Where a name gives a salt, the structure may show the parent alone. Read-outs that look alike come from different tables or passages of the source.
# Columns and labels:
# [1] = molecular target: human recombinant SSAO (hSSAO) (Homo sapiens (Human), UniProt Q16853); assay: SSAO/VAP-1 in vitro activity, MAO-Glo assay, recombinant SSAO; type: biochemical; settings: substrate 10 μM, mean ± SEM, read-out: hSSAO Inhib Rel IC50
# Protocol: Amine oxidase activity of recombinant SSAO, MAOa, and MAOb isoforms are measured using the MAO-Glo™ assay kit from Promega (V1402). Test compounds (with DMSO as vehicle, 0.5% v/v for SSAO) and the enzyme are incubated for 10 mins at room temperature before the addition of the luminogenic substrate. The substrate concentration is 10 μM for human recombinant SSAO. The assays are conducted in a pH 7.4 buffer (50 mM HEPES, 120 mM NaCl, 5 mM KCl, 2 mM CaCl2, 1.4 mM MgCl2, 0.001% Tween-20) in a well-plate. Oxidation of the substrate is conducted for 2 hrs before the addition of detecting reagent according the manufacture's protocol. The IC50 value of the tested compounds is calculated by fitting the dose response curve using a 4-parameter non-linear regression routine.
# [2] = Plasma compound levels by mass spectroscopy in 3H diet mice; type: in vivo, mouse; settings: for concentration at 2 h: male, C57BL/6N, plasma, read-out: Plasma Compound Level
# Protocol: Male C57BL/6N mice are fed with D09100301 diet (Research Diets, 40% fat, 2% cholesterol, 24% fructose, (the, high fat, high cholesterol and high fructose, the “3H diet”) for 150 days. Each mouse is then singly housed after 5 days for an acclimation period. Plasma alanine aminotransferase (ALT) and cytokeratin 18 (CK18) are measured. After one week of recovery, the mice are randomized into 5 groups based on their ALT values, CK18 values, and body weight. […] Blood is collected from mice treated with the compound of Example 6 for 76 days 2 hours after the last dose. Compound levels in the plasma are analyzed by mass spectroscopy.
# [3] = system: Male C57BL/6N mice fed 3H diet; assay: Mouse model of NASH and fibrosis induced by 3H diet; type: in vivo; settings: for Hepatic inflammation Score (0-3) Left / Macrovesicular vaculation Score (0-3) Left / Perisinusoidal fibrosis Score (0-3) Left: left lobe; for Hepatic inflammation Score (0-3) Right / Macrovesicular vaculation Score (0-3) Right / Perisinusoidal fibrosis Score (0-3) Right: right lobe
# Protocol: Male C57BL/6N mice are fed with D09100301 diet (Research Diets, 40% fat, 2% cholesterol, 24% fructose, (the, high fat, high cholesterol and high fructose, the “3H diet”) for 150 days. Each mouse is then singly housed after 5 days for an acclimation period. Plasma alanine aminotransferase (ALT) and cytokeratin 18 (CK18) are measured. After one week of recovery, the mice are randomized into 5 groups based on their ALT values, CK18 values, and body weight. […] Blood is collected from mice treated with the compound of Example 6 for 76 days 2 hours after the last dose. Compound levels in the plasma are analyzed by mass spectroscopy. […] At the completion of the study, the animals are sacrificed and their livers excised. Two sections of the left and right lobes are fixed in neutral buffered 10% formalin. Liver tissue slides are stained with hematoxylin and eosin (H&E), Sirius red, and Masson's Trichrome to prepare slides for pathological analysis. All specimens are examined microscopically and scored as a modified Brunt score NASH Activity Score. Scores are based on the grading scheme and end-points as described in Brunt E. M, et al., “Histopathology of nonalcoholic fatty liver disease,” World J. of Gastroenterol, 2010, 16(42), 5286-5296. Group means are then calculated for each individual end-point. The following endpoints are used to characterize the fast food model of NASH in mice as modified from NASH endpoints (See Brunt, E. M. “Histopathology of nonalcoholic fatty liver disease,” Clin Liver Dis., 2009, 13, 533-544 and Brunt, E. M, et al., “Nonalcoholic steatohepatitis: A proposal for grading and staging the histological lesions”, Am J Gastroenterology, 1999, 94(9), 2467-2474.
# [4] = system: SSAO activity in rat plasma and liver; assay: SSAO target engagement in rat plasma and liver; type: in vivo; settings: for SSAO Activity (%) Liver 24 hour / SSAO Activity (%) Plasma 2 hour / SSAO Activity (%) Plasma 24 hour: mean ± SEM, n = 6
# Protocol: The SSAO activity in rat plasma and liver tissues are measured using the MAO-Glo™ assay kit from Promega (V1402). The residual SSAO activity in rats after compound treatment is estimated by measuring the total amine oxidase activity in plasma or liver lysates that are insensitive to the presence of the MAO inhibitor Clogyline and Pargyline. Rats are administered the compound of Example 2 at the doses of 15, 3, 0.6, 0.12, 0.025, 0.005 mg/kg. The control group is administered with the same volume (2 ml/kg) of the dosing vehicle (hydroxyethyl cellulose 1% w/v, 0.25% Tween 80). Plasma and liver at 2 or 24 hours post compound treatment are harvested and stored at −78° C. until analysis. Tissue lysates are prepared by homogenization in a lysis buffer (20 mM HEPES, pH 7.4, 150 mM NaCl, 1 mM EDTA, 1 mM EGTA, 1% Triton X-100 and 1× Roche Complete protease inhibitor tablet). Tissue particles are removed by centrifugation at 12,000 rpm at 4° C. for 30 minutes. 40 μl of plasma or liver lysates is incubated with Clogyline (10 μM) and Pargyline (10 μM) for 20 minutes at room temperature before the addition of the luminogenic substrate (50 μM) for 60 minutes. The product generated is quantified according to the manufacture's procedure. The fraction of activity that is insensitive to the presence of the MAO inhibitors is used as the surrogate for the residual SSAO activity. The compound of Example 2 was evaluated in the protocol essentially as described above administered at various doses.
# [5] = mouse 3H diet, 0.6 mg/kg once daily, mean ± SEM
# [6] = mouse 3H diet, 0.6 mg/kg, mean ± SEM
# [7] = mouse 3H diet, 2 mg/kg once daily, mean ± SEM
# [8] = mouse 3H diet, 2 mg/kg, mean ± SEM
# [9] = mouse 3H diet, 6 mg/kg once daily, mean ± SEM
# [10] = mouse 3H diet, 6 mg/kg, mean ± SEM
# [11] = mouse 3H diet, 20 mg/kg once daily, mean ± SEM
# [12] = mouse 3H diet, 20 mg/kg, mean ± SEM
# Sequence of human recombinant SSAO (hSSAO) (Q16853 whole entry, canonical isoform): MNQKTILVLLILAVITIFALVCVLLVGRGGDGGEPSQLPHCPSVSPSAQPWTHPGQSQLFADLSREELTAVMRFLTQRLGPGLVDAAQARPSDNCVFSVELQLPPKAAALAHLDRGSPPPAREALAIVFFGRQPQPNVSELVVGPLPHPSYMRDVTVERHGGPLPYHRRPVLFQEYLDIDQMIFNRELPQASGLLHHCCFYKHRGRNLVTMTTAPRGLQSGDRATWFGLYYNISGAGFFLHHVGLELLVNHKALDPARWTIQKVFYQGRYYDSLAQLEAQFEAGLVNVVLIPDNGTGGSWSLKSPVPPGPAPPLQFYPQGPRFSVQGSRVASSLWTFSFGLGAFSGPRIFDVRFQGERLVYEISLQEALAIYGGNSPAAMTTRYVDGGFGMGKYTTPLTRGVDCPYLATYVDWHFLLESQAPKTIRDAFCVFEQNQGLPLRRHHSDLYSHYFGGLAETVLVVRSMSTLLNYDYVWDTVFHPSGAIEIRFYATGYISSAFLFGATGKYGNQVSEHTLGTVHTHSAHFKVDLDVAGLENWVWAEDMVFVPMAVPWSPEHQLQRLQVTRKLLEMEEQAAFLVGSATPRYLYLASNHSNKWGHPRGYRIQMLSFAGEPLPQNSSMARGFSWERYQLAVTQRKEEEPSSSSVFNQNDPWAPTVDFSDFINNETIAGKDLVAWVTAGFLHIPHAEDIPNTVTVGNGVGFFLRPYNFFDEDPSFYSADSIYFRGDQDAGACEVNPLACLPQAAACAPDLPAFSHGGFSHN
compound,measurement,setting,value
"COC1CCN(c2ncc(OC/C(=C/F)CN)cn2)CC1 [Example 3, (E)-3-Fluoro-2-[[2-(4-methoxy-1-piperidyl)pyrimidin-5-yl]oxymethyl]prop-2-en-1-amine, Dihydrochloride]",IC50,[1],12 ± 1 nM
"CO[C@H]1CCN(c2ncc(OC/C(=C/F)CN)cn2)C1 [Example 5, (E)-3-Fluoro-2-[[2-[(3S)-3-methoxypyrrolidin-1-yl]pyrimidin-5-yl]oxymethyl]prop-2-en-1-amine]",IC50,[1],32 ± 7 nM
"Cl.Cl.NC/C(=C\F)COc1cnc(N2CC[C@H](O)C2)nc1 [Example 6, (3 S)-1-[5-[(E)-2-(Aminomethyl)-3-fluoro-allyloxy]pyrimidin-2-yl]pyrrolidin-3-ol; Dihydrochloride]",concentration at 2 h,"[2]; mouse, 2 mg/kg once daily, 76 days, 2 hours after last dose, mean ± SEM",163 ± 21 ng/mL
same,concentration at 2 h,"[2]; mouse, 6 mg/kg once daily, 76 days, 2 hours after last dose, mean ± SEM",560 ± 29 ng/mL
same,concentration at 2 h,"[2]; mouse, 20 mg/kg once daily, 76 days, 2 hours after last dose, mean ± SEM",2120 ± 219 ng/mL
same,Plasma Compound Level,"[2]; mouse, 0.6 mg/kg once daily, 76 days, 2 hours after last dose, mean ± SEM",66. ± 5 ng/ml
same,plasma compound levels,"[2]; treated mice, all doses",dose-dependent increase
same,hepatic inflammation,[3]; 20 mg/kg,significant decrease
same,macrovesicular vaculation,[3]; 20 mg/kg,significant decrease
same,perisinusoidal fibrosis,[3]; 20 mg/kg,significant decrease
same,triglyceride levels in blood,[3]; 6 and 20 mg/kg,decreased
same,ALT,[3]; all groups of treated mice,significant decrease
same,ALT,[3]; [5],530 ± 45 IU/L
same,Plasma TG,[3]; [5],55 ± 6 mg/dL
same,Hepatic inflammation Score (0-3) Left,[3]; [6],2.6 ± 0.1
same,Macrovesicular vaculation Score (0-3) Left,[3]; [6],2.5 ± 0.1
same,Perisinusoidal fibrosis Score (0-3) Left,[3]; [6],2.4 ± 0.2
same,Hepatic inflammation Score (0-3) Right,[3]; [6],2.5 ± 0.1
same,Macrovesicular vaculation Score (0-3) Right,[3]; [6],2.6 ± 0.1
same,Perisinusoidal fibrosis Score (0-3) Right,[3]; [6],1.9 ± 0.2
same,ALT,[3]; [7],483 ± 44 IU/L
same,Plasma TG,[3]; [7],70 ± 11 mg/dL
same,Hepatic inflammation Score (0-3) Left,[3]; [8],2.5 ± 0.1
same,Macrovesicular vaculation Score (0-3) Left,[3]; [8],2.5 ± 0.1
same,Perisinusoidal fibrosis Score (0-3) Left,[3]; [8],2.5 ± 0.2
same,Hepatic inflammation Score (0-3) Right,[3]; [8],2.6 ± 0.1
same,Macrovesicular vaculation Score (0-3) Right,[3]; [8],2.7 ± 0.1
same,Perisinusoidal fibrosis Score (0-3) Right,[3]; [8],1.8 ± 0.2
same,ALT,[3]; [9],495 ± 25 IU/L
same,Plasma TG,[3]; [9],46 ± 4 mg/dL
same,Hepatic inflammation Score (0-3) Left,[3]; [10],2.5 ± 0.2
same,Macrovesicular vaculation Score (0-3) Left,[3]; [10],2.9 ± 0.1
same,Perisinusoidal fibrosis Score (0-3) Left,[3]; [10],2.6 ± 0.2
same,Hepatic inflammation Score (0-3) Right,[3]; [10],2.6 ± 0.2
same,Macrovesicular vaculation Score (0-3) Right,[3]; [10],2.7 ± 0.1
same,Perisinusoidal fibrosis Score (0-3) Right,[3]; [10],2.1 ± 0.3
same,ALT,[3]; [11],466 ± 37 IU/L
same,Plasma TG,[3]; [11],45 ± 5 mg/dL
same,Hepatic inflammation Score (0-3) Left,[3]; [12],2.1 ± 0.1
same,Macrovesicular vaculation Score (0-3) Left,[3]; [12],2.4 ± 0.2
same,Perisinusoidal fibrosis Score (0-3) Left,[3]; [12],1.9 ± 0.2
same,Hepatic inflammation Score (0-3) Right,[3]; [12],2.1 ± 0.1
same,Macrovesicular vaculation Score (0-3) Right,[3]; [12],2.3 ± 0.1
same,Perisinusoidal fibrosis Score (0-3) Right,[3]; [12],1.5 ± 0.2
same,IC50,[1],52 ± 5 nM
"Cl.Cl.NC/C(=C\F)COc1cnc(N2CCC(O)CC2)nc1 [Example 2, 1-[5-[(E)-2-(Aminomethyl)-3-fluoro-allyloxy]pyrimidin-2-yl]piperidin-4-ol Dihydrochloride]",SSAO Activity (%) Liver 24 hour,[4]; 0.005 mg/kg,75 ± 18%
same,SSAO Activity (%) Plasma 2 hour,[4]; 0.005 mg/kg,31 ± 3%
same,SSAO Activity (%) Plasma 24 hour,[4]; 0.005 mg/kg,70 ± 7%
same,SSAO Activity (%) Liver 24 hour,[4]; 0.025 mg/kg,68 ± 14%
same,SSAO Activity (%) Plasma 2 hour,[4]; 0.025 mg/kg,21 ± 1%
same,SSAO Activity (%) Plasma 24 hour,[4]; 0.025 mg/kg,55 ± 9%
same,SSAO Activity (%) Liver 24 hour,[4]; 0.12 mg/kg,45 ± 8%
same,SSAO Activity (%) Plasma 2 hour,[4]; 0.12 mg/kg,7 ± 1%
same,SSAO Activity (%) Plasma 24 hour,[4]; 0.12 mg/kg,35 ± 4%
same,SSAO Activity (%) Liver 24 hour,[4]; 0.6 mg/kg,16.2 ± 2.9%
same,SSAO Activity (%) Plasma 2 hour,[4]; 0.6 mg/kg,4.3 ± 0.8%
same,SSAO Activity (%) Plasma 24 hour,[4]; 0.6 mg/kg,16.3 ± 2.6%
same,SSAO Activity (%) Liver 24 hour,[4]; 3 mg/kg,7.1 ± 1.7%
same,SSAO Activity (%) Plasma 2 hour,[4]; 3 mg/kg,3.6 ± 1.0%
same,SSAO Activity (%) Plasma 24 hour,[4]; 3 mg/kg,8.8 ± 1.3%
same,SSAO Activity (%) Liver 24 hour,[4]; 15 mg/kg,9.6 ± 2.6%
same,SSAO Activity (%) Plasma 2 hour,[4]; 15 mg/kg,−0.6 ± 0.3%
same,SSAO Activity (%) Plasma 24 hour,[4]; 15 mg/kg,6.6 ± 1.8%
same,SSAO activity in rat plasma and liver,[4]; doses 0.005-15 mg/kg,dose-dependently inhibits
